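Protocol summary: plate cells (96-well), add compound at 5 concentrations, incubate 48 h, interpolate endpoints linearly. GI50 marks 50% less growth. At the TGI there is no net growth.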
Legend:
Experiment in all cases: DTP human tumour cell line panel, 48 h
786-0 renal = test system: 786-0 renal
A549 NSCLC = test system: A549 NSCLC
ACHN renal = test system: ACHN renal
BT-549 breast = test system: BT-549 breast
CAKI-1 renal = test system: CAKI-1 renal
CCRF-CEM leukemia = test system: CCRF-CEM leukemia
COLO 205 colon = test system: COLO 205 colon
DU-145 prostate = test system: DU-145 prostate
HCC-2998 colon = test system: HCC-2998 colon
HCT-116 colon = test system: HCT-116 colon
HCT-15 colon = test system: HCT-15 colon
HL-60(TB) leukemia = test system: HL-60(TB) leukemia
HOP-62 NSCLC = test system: HOP-62 NSCLC
HOP-92 NSCLC = test system: HOP-92 NSCLC
HS 578T breast = test system: HS 578T breast
HT29 colon = test system: HT29 colon
IGROV1 ovarian = test system: IGROV1 ovarian
K-562 leukemia = test system: K-562 leukemia
KM12 colon = test system: KM12 colon
LOX IMVI melanoma = test system: LOX IMVI melanoma
M14 melanoma = test system: M14 melanoma
MALME-3M melanoma = test system: MALME-3M melanoma
MCF7 breast = test system: MCF7 breast
MDA-MB-231 breast = test system: MDA-MB-231 breast
MDA-MB-435 = test system: MDA-MB-435
MOLT-4 leukemia = test system: MOLT-4 leukemia
NCI-H226 lung = test system: NCI-H226 lung
NCI-H23 lung = test system: NCI-H23 lung
NCI-H460 lung = test system: NCI-H460 lung
NCI-H522 lung = test system: NCI-H522 lung
OVCAR-3 ovarian = test system: OVCAR-3 ovarian
OVCAR-4 ovarian = test system: OVCAR-4 ovarian
OVCAR-5 ovarian = test system: OVCAR-5 ovarian
OVCAR-8 ovarian = test system: OVCAR-8 ovarian
PC-3 prostate = test system: PC-3 prostate
RPMI-8226 leukemia = test system: RPMI-8226 leukemia
RXF 393 renal = test system: RXF 393 renal
SF-268 CNS = test system: SF-268 CNS
SF-295 CNS = test system: SF-295 CNS
SF-539 CNS = test system: SF-539 CNS
SK-MEL-2 melanoma = test system: SK-MEL-2 melanoma
SK-MEL-28 melanoma = test system: SK-MEL-28 melanoma
SK-MEL-5 melanoma = test system: SK-MEL-5 melanoma
SK-OV-3 ovarian = test system: SK-OV-3 ovarian
SN12C renal = test system: SN12C renal
SNB-19 CNS = test system: SNB-19 CNS
SNB-75 CNS = test system: SNB-75 CNS
SR leukemia = test system: SR leukemia
SW-620 colon = test system: SW-620 colon
T-47D breast = test system: T-47D breast
TK-10 renal = test system: TK-10 renal
U251 CNS = test system: U251 CNS
UACC-257 melanoma = test system: UACC-257 melanoma
UACC-62 melanoma = test system: UACC-62 melanoma

Nc1c(C(=O)Nc2ccccn2)sc2nc3c(cc12)CCCCC3
GI50 (786-0 renal): 1780 nM | TGI (786-0 renal): > 50 µM | GI50 (A549 NSCLC): 2470 nM | TGI (A549 NSCLC): > 50 µM | GI50 (ACHN renal): 2710 nM | TGI (ACHN renal): > 50 µM | GI50 (BT-549 breast): 2360 nM | TGI (BT-549 breast): > 50 µM | GI50 (CAKI-1 renal): 3.51 µM | TGI (CAKI-1 renal): > 50 µM | GI50 (CCRF-CEM leukemia): 1910 nM | TGI (CCRF-CEM leukemia): > 50 µM | GI50 (COLO 205 colon): 1420 nM | TGI (COLO 205 colon): > 50 µM | GI50 (DU-145 prostate): 1880 nM | TGI (DU-145 prostate): > 50 µM | GI50 (HCC-2998 colon): 2370 nM | TGI (HCC-2998 colon): > 50 µM | GI50 (HCT-116 colon): 1770 nM | TGI (HCT-116 colon): > 50 µM | GI50 (HCT-15 colon): 1380 nM | TGI (HCT-15 colon): > 50 µM | GI50 (HL-60(TB) leukemia): 1340 nM | TGI (HL-60(TB) leukemia): > 50 µM | GI50 (HOP-62 NSCLC): 3.46 µM | TGI (HOP-62 NSCLC): > 50 µM | GI50 (HOP-92 NSCLC): 27.9 µM | TGI (HOP-92 NSCLC): > 50 µM | GI50 (HS 578T breast): 2740 nM | TGI (HS 578T breast): > 50 µM | GI50 (HT29 colon): 1750 nM | TGI (HT29 colon): > 50 µM | GI50 (IGROV1 ovarian): 3.58 µM | TGI (IGROV1 ovarian): > 50 µM | GI50 (K-562 leukemia): 987 nM | TGI (K-562 leukemia): > 50 µM | GI50 (KM12 colon): 1950 nM | TGI (KM12 colon): > 50 µM | GI50 (LOX IMVI melanoma): 9.56 µM | TGI (LOX IMVI melanoma): > 50 µM | GI50 (M14 melanoma): 1260 nM | TGI (M14 melanoma): > 50 µM | GI50 (MALME-3M melanoma): 34.3 µM | TGI (MALME-3M melanoma): > 50 µM | GI50 (MCF7 breast): 851 nM | TGI (MCF7 breast): > 50 µM | GI50 (MDA-MB-231 breast): 3.83 µM | TGI (MDA-MB-231 breast): > 50 µM | GI50 (MDA-MB-435): 250 nM | TGI (MDA-MB-435): > 50 µM | GI50 (MOLT-4 leukemia): 2320 nM | TGI (MOLT-4 leukemia): > 50 µM | GI50 (NCI-H226 lung): 2600 nM | TGI (NCI-H226 lung): > 50 µM | GI50 (NCI-H23 lung): 2190 nM | TGI (NCI-H23 lung): > 50 µM | GI50 (NCI-H460 lung): 1830 nM | TGI (NCI-H460 lung): > 50 µM | GI50 (NCI-H522 lung): 2110 nM | TGI (NCI-H522 lung): > 50 µM | GI50 (OVCAR-3 ovarian): 1630 nM | TGI (OVCAR-3 ovarian): > 50 µM | GI50 (OVCAR-4 ovarian): 4.09 µM | TGI (OVCAR-4 ovarian): > 50 µM | GI50 (OVCAR-5 ovarian): 3.8 µM | TGI (OVCAR-5 ovarian): > 50 µM | GI50 (OVCAR-8 ovarian): 2870 nM | TGI (OVCAR-8 ovarian): > 50 µM | GI50 (PC-3 prostate): 2590 nM | TGI (PC-3 prostate): > 50 µM | GI50 (RPMI-8226 leukemia): 1980 nM | TGI (RPMI-8226 leukemia): > 50 µM | GI50 (RXF 393 renal): 1400 nM | TGI (RXF 393 renal): 4.86 µM | GI50 (SF-268 CNS): 4.89 µM | TGI (SF-268 CNS): > 50 µM | GI50 (SF-295 CNS): 1560 nM | TGI (SF-295 CNS): > 50 µM | GI50 (SF-539 CNS): 1390 nM | TGI (SF-539 CNS): > 50 µM | GI50 (SK-MEL-2 melanoma): 2080 nM | TGI (SK-MEL-2 melanoma): > 50 µM | GI50 (SK-MEL-28 melanoma): 6.23 µM | TGI (SK-MEL-28 melanoma): > 50 µM | GI50 (SK-MEL-5 melanoma): 2130 nM | TGI (SK-MEL-5 melanoma): > 50 µM | GI50 (SK-OV-3 ovarian): 2140 nM | TGI (SK-OV-3 ovarian): > 50 µM | GI50 (SN12C renal): 3.59 µM | TGI (SN12C renal): > 50 µM | GI50 (SNB-19 CNS): 2770 nM | TGI (SNB-19 CNS): > 50 µM | GI50 (SNB-75 CNS): 2350 nM | TGI (SNB-75 CNS): > 50 µM | GI50 (SR leukemia): 521 nM | TGI (SR leukemia): > 50 µM | GI50 (SW-620 colon): 3.19 µM | TGI (SW-620 colon): > 50 µM | GI50 (T-47D breast): 1790 nM | TGI (T-47D breast): > 50 µM | GI50 (TK-10 renal): 4.98 µM | TGI (TK-10 renal): > 50 µM | GI50 (U251 CNS): 2640 nM | TGI (U251 CNS): > 50 µM | GI50 (UACC-257 melanoma): > 50 µM | TGI (UACC-257 melanoma): > 50 µM | GI50 (UACC-62 melanoma): 3.06 µM | TGI (UACC-62 melanoma): > 50 µM

Reference: PubChem BioAssay (NCI)
